Reference: ChEMBL document CHEMBL2380246, “Structure-activity relationships of hybrid annonaceous acetogenins: powerful growth inhibitory effects of their connecting groups between heterocycle and hydrophobic carbon chain bearing THF ring on human cancer cell lines” (2013)

Tests used:
Assay type in all cases: functional
DU-145 = assay: Growth inhibition of human DU145 cells after 48 hrs by sulforhodamine B assay; details: DU-145, 48 h
OVCAR-3 = assay: Growth inhibition of human OVCAR3 cells after 48 hrs by sulforhodamine B assay; details: OVCAR-3, 48 h
PC-3 = assay: Growth inhibition of human PC3 cells after 48 hrs by sulforhodamine B assay; details: PC-3, 48 h
[1] = Growth inhibition of human BSY1 cells after 48 hrs by sulforhodamine B assay; details: BSY-1, 48 h
SNB-78 = assay: Growth inhibition of human SNB78 cells after 48 hrs by sulforhodamine B assay; details: SNB-78, 48 h
HT-29 = assay: Growth inhibition of human HT-29 cells after 48 hrs by sulforhodamine B assay; details: HT-29, 48 h
OVCAR-5 = assay: Growth inhibition of human OVCAR5 cells after 48 hrs by sulforhodamine B assay; details: OVCAR-5, 48 h
SK-OV-3 = assay: Growth inhibition of human SKOV3 cells after 48 hrs by sulforhodamine B assay; details: SK-OV-3, 48 h
HCT-116 = assay: Growth inhibition of human HCT116 cells after 48 hrs by sulforhodamine B assay; details: HCT-116, 48 h
LOX IMVI = assay: Growth inhibition of human LOXIMVI cells after 48 hrs by sulforhodamine B assay
NCI-H522 = assay: Growth inhibition of human NCI-H522 cells after 48 hrs by sulforhodamine B assay; details: NCI-H522, 48 h
SNB-75 = assay: Growth inhibition of human SNB75 cells after 48 hrs by sulforhodamine B assay; details: SNB-75, 48 h
HCT-15 = assay: Growth inhibition of human HCT15 cells after 48 hrs by sulforhodamine B assay; details: HCT-15, 48 h
[2] = Growth inhibition of human HCC2998 cells after 48 hrs by sulforhodamine B assay; details: HCC 2998, 48 h
SF-539 = assay: Growth inhibition of human SF539 cells after 48 hrs by sulforhodamine B assay; details: SF-539, 48 h
[3] = Growth inhibition of human HBC4 cells after 48 hrs by sulforhodamine B assay; details: HBC4, 48 h
MKN-7 = assay: Growth inhibition of human MKN7 cells after 48 hrs by sulforhodamine B assay; details: MKN-7, 48 h
SF-268 = assay: Growth inhibition of human SF268 cells after 48 hrs by sulforhodamine B assay; details: SF-268, 48 h
St-4 = assay: Growth inhibition of human St-4 cells after 48 hrs by sulforhodamine B assay; details: St-4, 48 h
NCI-H23 = assay: Growth inhibition of human NCI-H23 cells after 48 hrs by sulforhodamine B assay; details: NCI-H23, 48 h
KM12 = assay: Growth inhibition of human KM12 cells after 48 hrs by sulforhodamine B assay; details: KM12, 48 h
OVCAR-4 = assay: Growth inhibition of human OVCAR4 cells after 48 hrs by sulforhodamine B assay; details: OVCAR-4, 48 h
A549 = assay: Growth inhibition of human A549 cells after 48 hrs by sulforhodamine B assay; details: A549, 48 h
[4] = Growth inhibition of human MKN1 cells after 48 hrs by sulforhodamine B assay; details: MKN-1, 48 h
DMS-114 = assay: Growth inhibition of human DMS114 cells after 48 hrs by sulforhodamine B assay; details: DMS-114, 48 h
MKN-74 = assay: Growth inhibition of human MKN74 cells after 48 hrs by sulforhodamine B assay; details: MKN-74, 48 h
NCI-H460 = assay: Growth inhibition of human NCI-H460 cells after 48 hrs by sulforhodamine B assay; details: NCI-H460, 48 h
MKN-45 = assay: Growth inhibition of human MKN45 cells after 48 hrs by sulforhodamine B assay; details: MKN-45, 48 h
[5] = Growth inhibition of human HBC5 cells after 48 hrs by sulforhodamine B assay; details: HBC5, 48 h
SF-295 = assay: Growth inhibition of human SF295 cells after 48 hrs by sulforhodamine B assay; details: SF-295, 48 h
MCF7 = assay: Growth inhibition of human MCF7 cells after 48 hrs by sulforhodamine B assay; details: MCF7, 48 h
MDA-MB-231 = assay: Growth inhibition of human MDA-MB-231 cells after 48 hrs by sulforhodamine B assay; details: MDA-MB-231, 48 h
[6] = Growth inhibition of human RXF631L cells after 48 hrs by sulforhodamine B assay; details: RXF 631, 48 h
DMS-273 = assay: Growth inhibition of human DMS273 cells after 48 hrs by sulforhodamine B assay; details: DMS-273, 48 h
NCI-H226 = assay: Growth inhibition of human NCI-H226 cells after 48 hrs by sulforhodamine B assay; details: NCI-H226, 48 h
OVCAR-8 = assay: Growth inhibition of human OVCAR8 cells after 48 hrs by sulforhodamine B assay; details: OVCAR-8, 48 h
MKN-28 = assay: Growth inhibition of human MKN28 cells after 48 hrs by sulforhodamine B assay; details: MKN-28, 48 h
ACHN = assay: Growth inhibition of human ACHN cells after 48 hrs by sulforhodamine B assay
U-251 = assay: Growth inhibition of human U251 cells after 48 hrs by sulforhodamine B assay; details: U-251, 48 h

## CCCCCCCCCCCC[C@@H](O)[C@H]1CC[C@H]([C@H](O)CCCCCCCCCCN(C)C(=O)c2ccnn2C)O1
DU-145
  GI50: 12.9 µM
OVCAR-3
  GI50: 10 µM
PC-3
  GI50: 2.19 µM
[1]
  GI50: 0.501 µM
SNB-78
  GI50: 12 µM
HT-29
  GI50: 8.13 µM
OVCAR-5
  GI50: 14.1 µM
SK-OV-3
  GI50: 15.8 µM
HCT-116
  GI50: 0.794 µM
LOX IMVI
  GI50: 1.41 µM
NCI-H522
  GI50: 2.29 µM
SNB-75
  GI50: 15.8 µM
HCT-15
  GI50: 10 µM
[2]
  GI50: 12 µM
SF-539
  GI50: 12 µM
[3]
  GI50: 10 µM
MKN-7
  GI50: 0.0513 µM
SF-268
  GI50: 15.1 µM
St-4
  GI50: 6.76 µM
NCI-H23
  GI50: 0.24 µM
KM12
  GI50: 4.17 µM
OVCAR-4
  GI50: 10 µM
A549
  GI50: 8.51 µM
[4]
  GI50: 5.5 µM
DMS-114
  GI50: 0.0347 µM
MKN-74
  GI50: 1.7 µM
NCI-H460
  GI50: 5.5 µM
MKN-45
  GI50: 11 µM
[5]
  GI50: 3.09 µM
SF-295
  GI50: 2 µM
MCF7
  GI50: 5.01 µM
MDA-MB-231
  GI50: 8.91 µM
[6]
  GI50: 11 µM
DMS-273
  GI50: 3.31 µM
NCI-H226
  GI50: 9.77 µM
OVCAR-8
  GI50: 6.03 µM
MKN-28
  GI50: 0.302 µM
ACHN
  GI50: 11 µM
U-251
  GI50: 10 µM

## CCCCCCCCCCCC[C@@H](O)[C@H]1CC[C@H]([C@H](O)CCCCCCCCCCNCc2ccnn2C)O1
DU-145
  GI50: 4.37 µM
OVCAR-3
  GI50: 1.51 µM
PC-3
  GI50: 2.29 µM
[1]
  GI50: 0.339 µM
SNB-78
  GI50: 2.09 µM
HT-29
  GI50: 3.02 µM
OVCAR-5
  GI50: 3.09 µM
SK-OV-3
  GI50: 2.09 µM
HCT-116
  GI50: 1.1 µM
LOX IMVI
  GI50: 1.2 µM
NCI-H522
  GI50: 1.29 µM
SNB-75
  GI50: 2 µM
HCT-15
  GI50: 2 µM
[2]
  GI50: 1.82 µM
SF-539
  GI50: 1.58 µM
[3]
  GI50: 1.82 µM
MKN-7
  GI50: 0.309 µM
SF-268
  GI50: 3.63 µM
St-4
  GI50: 1.82 µM
NCI-H23
  GI50: 0.646 µM
KM12
  GI50: 1.41 µM
OVCAR-4
  GI50: 1.58 µM
A549
  GI50: 8.71 µM
[4]
  GI50: 1.41 µM
DMS-114
  GI50: 0.129 µM
MKN-74
  GI50: 1.29 µM
NCI-H460
  GI50: 1.7 µM
MKN-45
  GI50: 1.82 µM
[5]
  GI50: 2.09 µM
SF-295
  GI50: 1.2 µM
MCF7
  GI50: 1.7 µM
MDA-MB-231
  GI50: 2.19 µM
[6]
  GI50: 2.4 µM
DMS-273
  GI50: 1.58 µM
NCI-H226
  GI50: 3.31 µM
OVCAR-8
  GI50: 1.58 µM
MKN-28
  GI50: 0.501 µM
ACHN
  GI50: 3.09 µM
U-251
  GI50: 1.51 µM

## CCCCCCCCCCCC[C@@H](O)[C@H]1CC[C@H]([C@H](O)CCCCCCCCCCCCc2ccnn2C)O1
DU-145
  GI50: > 100 µM
OVCAR-3
  GI50: > 100 µM
PC-3
  GI50: > 100 µM
[1]
  GI50: 32.4 µM
SNB-78
  GI50: > 100 µM
HT-29
  GI50: 75.9 µM
OVCAR-5
  GI50: > 100 µM
SK-OV-3
  GI50: 77.6 µM
HCT-116
  GI50: 9.12 µM
LOX IMVI
  GI50: > 100 µM
NCI-H522
  GI50: 3.8 µM
SNB-75
  GI50: > 100 µM
HCT-15
  GI50: > 100 µM
[2]
  GI50: 79.4 µM
SF-539
  GI50: 37.2 µM
[3]
  GI50: > 100 µM
MKN-7
  GI50: 6.17 µM
SF-268
  GI50: > 100 µM
St-4
  GI50: 64.6 µM
NCI-H23
  GI50: 0.912 µM
KM12
  GI50: 70.8 µM
OVCAR-4
  GI50: 37.2 µM
A549
  GI50: 30.9 µM
[4]
  GI50: > 100 µM
DMS-114
  GI50: 0.55 µM
MKN-74
  GI50: 22.9 µM
NCI-H460
  GI50: > 100 µM
MKN-45
  GI50: > 100 µM
[5]
  GI50: 69.2 µM
SF-295
  GI50: 24 µM
MCF7
  GI50: 26.9 µM
MDA-MB-231
  GI50: 32.4 µM
[6]
  GI50: > 100 µM
DMS-273
  GI50: 49 µM
NCI-H226
  GI50: 52.5 µM
OVCAR-8
  GI50: > 100 µM
MKN-28
  GI50: 4.37 µM
ACHN
  GI50: 87.1 µM
U-251
  GI50: > 100 µM
